The text below walks through data of US10022360B2, “Polymeric nanoparticles and methods of making and using same” (priority 2014, dated 2018).

SMILES strings stand for the structures.

The format of data set [1] is in vivo. To be noted: BT-474 xenografts in SCID mice, FIG. 15.
A short description of a further data set: in vivo. The settings on record: mouse. How it is done:
NPs from Example 4 were prepared on a larger scale for MTD studies.

Data set [2] can be described thus: Blood glucose after acute treatment, non-tumor bearing SCID mice. In kind it is in vivo. To be noted: FIG. 10.

For `NC1(c2ccc(-c3nc4ccn5c(=O)[nH]nc5c4cc3-c3ccccc3)cc2)CCC1` [COMPOUND A, 8-[4-(1-amino-cyclobutyl)phenyl]-9-phenyl-2H-[1,2,4]-triazolo-[3,4-f][1,6]-naphthyridin-3-one], the “MTD dosing / toxicity (percent survival)” value in data set [1] is recorded as “exhibited toxicity”. The compound also had an MTD in the data set “in vivo” of 480 mg/kg. The “hyperglycemia following acute treatment” value in data set [2] is on record as “display hyperglycemia”.
